Target: Recombinant human cathepsin A (Homo sapiens (Human), UniProt P10619)
Assay: Cathepsin A inhibitory activity (cleavage of Bodipy FL-labeled bradykinin, microfluidic capillary electrophoresis)
Format: biochemical
Details: read-out: Activity (Cathepsin A inhibitory activity, IC50)

Sequence of Recombinant human cathepsin A (P10619 29-326): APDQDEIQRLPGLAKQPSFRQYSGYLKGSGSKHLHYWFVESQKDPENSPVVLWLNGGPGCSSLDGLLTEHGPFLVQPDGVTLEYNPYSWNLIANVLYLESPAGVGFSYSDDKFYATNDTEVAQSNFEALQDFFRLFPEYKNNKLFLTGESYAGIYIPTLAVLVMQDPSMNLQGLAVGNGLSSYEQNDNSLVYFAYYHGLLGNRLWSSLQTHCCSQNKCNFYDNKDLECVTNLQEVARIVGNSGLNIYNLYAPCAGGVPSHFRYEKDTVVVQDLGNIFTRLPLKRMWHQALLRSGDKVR
Sequence of Recombinant human cathepsin A (P10619 327-480): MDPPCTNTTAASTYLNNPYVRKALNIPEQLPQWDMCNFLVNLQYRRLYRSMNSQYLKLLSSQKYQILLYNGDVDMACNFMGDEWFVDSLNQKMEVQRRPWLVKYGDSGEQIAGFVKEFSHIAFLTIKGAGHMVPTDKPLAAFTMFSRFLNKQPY

IC50: 10.4 µM
Compound: O=C(O)CC(NC(=O)c1cc(-c2ccccc2)nc(N2CCCCC2)n1)c1ccccc1Cl (stereo not shown) [compound 616, 3-(2-Chloro-phenyl)-3-[(6-phenyl-2-piperidin-1-yl-pyrimidine-4-carbonyl)-amino]-propionic acid]
